Results published in US20230226198A1, “Artemisinin Derivatives” (DA ZEN THERANOSTICS, INC., priority 2019, published 2023).

Legend:
[1] = tested on: Abi-R cells (Abiraterone acetate resistant C4-2B cells); assay: MTT cell viability / IC50 assay, Abi-R; type: cell-based; settings: Homo sapiens, 48 h
Protocol: (§1) Cell culture: In the following examples, unless otherwise specified, all cell lines are purchased from American Type Culture Collection and cultured in American Type Culture Collection (ATCC)-recommended media, with fetal bovine serum (FBS) to a final concentration of 10% and 1× penicillin/streptomycin at 37° C. with 5% CO2 in a cell culture incubator, unless otherwise specified. Unless otherwise specified, culture is 2D. Where culture is 3D, low attachment plates are used, with the same media. C4-2B (ATCC® CRL-3315™, human prostate cancer cells of epithelial morphology) parental cell line and drug-resistant cells derived therefrom) are cultured in RPMI-1640 with 10% FBS. MDVR cells (an Enzalutamide-resistant variety of C4-2B prostate cancer cells formed as described below) are cultured as indicated for the parental C4-2B cells. Caki-1 cells (human clear cell renal cell carcinoma cells) are cultured in ATCC-formulated McCoy's 5a Medium Modified (ATCC Catalog No. 30-2007) with 10% FBS. […]
(§2) Each of the cell lines is treated either with a THAD (e.g. DZ-DHA-ether, MI-148-bis-DHA), or for comparison, with the DHA mono-ester “DZ-DHA”; alternatively/additionally, DZ1 and/or unconjugated DHA may serve as comparants. […] The absorbance density of the supernatant is read on a 96-well microplate reader at wavelength 595 nm. […]

[2] = tested on: C4-2B cells; assay: MTT cell viability / IC50 assay, C4-2B; type: cell-based; settings: Homo sapiens, 48 h
Protocol: as §1, §2

## C[C@@H]1CC[C@H]2[C@@H](C)C(OC(=O)CCCCCN3/C(=C/C=C4\CCCC(/C=C/C5=[N+](CCCCS(=O)(=O)[O-])c6ccccc6C5(C)C)=C4Cl)C(C)(C)c4ccccc43)O[C@@H]3OC4(C)CC[C@@H]1[C@]32OO4 (stereo in doubt) [DZ3a]
[1]
  IC50: 17.1 µM
[2]
  IC50: 5 µM

## C[C@H]1[C@@H](O)O[C@@H]2O[C@@]3(C)CC[C@H]4[C@H](C)CC[C@@H]1[C@@]24OO3 [DHA, dihydroartemisinin]
[1]
  IC50: 669 µM
[2]
  IC50: 188 µM
